One data set concerns the target T1, neuraminidase (UniProt P03468).
T1 construct: IC50; other: compound incubated in enzyme assay buffer before the test
Format: biochemical. The following applies: enzyme inhibition in vitro.

For data set [1] the following is noted: mouse, in vivo, cited from earlier work.
The next data set has as its system influenza. The following applies: mice, Ryan et al. 1994, cited from earlier work.
For data set [2] the following is noted: in vivo; cited from earlier work.

T1 sequence (P03468 whole entry): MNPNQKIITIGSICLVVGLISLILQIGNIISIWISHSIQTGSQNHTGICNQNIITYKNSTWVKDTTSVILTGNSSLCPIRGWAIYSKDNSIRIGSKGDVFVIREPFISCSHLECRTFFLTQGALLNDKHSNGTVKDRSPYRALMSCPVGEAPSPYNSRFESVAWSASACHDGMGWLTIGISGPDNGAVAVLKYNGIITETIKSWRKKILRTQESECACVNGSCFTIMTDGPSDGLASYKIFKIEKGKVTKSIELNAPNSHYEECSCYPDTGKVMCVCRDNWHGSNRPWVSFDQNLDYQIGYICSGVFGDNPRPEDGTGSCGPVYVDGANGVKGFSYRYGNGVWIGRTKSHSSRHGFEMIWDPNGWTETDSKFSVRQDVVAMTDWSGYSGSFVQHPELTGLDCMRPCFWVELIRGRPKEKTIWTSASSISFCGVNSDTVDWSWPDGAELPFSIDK

As usually defined, the IC50 is the point on the concentration scale where inhibition reaches its midpoint. At neuraminidase, `CC(=O)N[C@H]1[C@H](O)C=C(C(=O)O)C[C@@H]1N=C(N)N` [compound 94] came in with a concentration for half-maximal inhibition (IC50) of less than 1000 nM.

`CC(=O)N[C@H]1[C@H]([C@H](O)[C@H](O)CO)OC(C(=O)O)=C[C@@H]1N=C(N)N` [GG167, 4-guanidino-2,4-dideoxy-2,3-dehydro-N-acetylneuraminic acid]: in data set [1] (ip), the Bioavailability entry is listed as “good”. Also, in data set [1] (po), the Oral bioavailability entry was “poor”. For the same molecule, in data set [1], the “Clearance from the plasma” value was “rapid”. For the same molecule, in the data set on influenza (intraperitoneal administration), the In vivo activity entry is reported as “relatively poor”. In addition, the Efficacy result in the data set with influenza (oral dosing) is reported as “poor”. For the same molecule, the Toxicity result in data set [2] is reported as “similarly nontoxic”.

`COCO[C@@H]1C=C(C(=O)O)C[C@H](N)[C@H]1NC(C)=O` [compound 114] returned an IC50 on neuraminidase of 1000 to 10000 nM.

The record behind these values is patent US20040053999A1, “Novel compounds and methods for synthesis and therapy” (priority 1997, published 2004).
